Holding throughout (format): in vivo, rat
The subject of test [1] is Sprague-Dawley rats. Kind of test: Gastric emptying of a test meal in rats. The protocol:
Rats were fasted overnight (16-18 hours) with free access to water. The next morning, compound was administered and animals were individually housed in bedding-free cages with pre-weighed food available ad libitum and access to water for 2 hours. The water and food were then removed and the remaining food was re-weighed. Gastric emptying of the ingested meal was assessed 4 hours later. Animals were euthanized by CO2 inhalation followed by thoracotomy. The abdominal cavity was opened, the pylorus and cardia were clamped and the stomach was removed. The excised stomach was weighed and then opened along the greater curvature, rinsed with tap water, lightly dried and re-weighed. The amount of food in the stomach (grams) was estimated based on the difference between the total weight of the stomach plus its contents and the weight of the stomach after the contents were removed. The meal ingested (food intake) was determined by the difference between pre- and post-feeding weight at the end of the 2 hour period. Gastric emptying during the 4 hour experiment is represented as: Gastric emptying=[1−(gastric content/food intake)]×100. Gastric Secretion
Male, Sprague-Dawley rats (weighing between 229-264 g each and 4 rats per test group) were fasted overnight (19 hours). The rats were then orally administered 10 mg/kg, 30 mg/kg or 100 mg/kg of Compound A with a 0.5% MC or Capryol:Solutol:Polyethyleneglycol (CSP) vehicle or with a 0.5% MC or CSP vehicle alone. The rats were then placed in individual, bedding-free cages and allowed ad libitium access to pre-weighed food and water for two hours. The food and water were then removed and the food was reweighed. Gastric emptying was then assessed four hours later by euthanizing the rats and analyzing the stomach and stomach contents. […] Data are represented as the means+the standard error of the means (S.E.M). % Gastric Emptying in 4 hours=(1−(gastric content/food intake))×100. […] Data are represented as the means+S.E.M.
Male, Sprague-Dawley rats (weighing between 235-268 g each and 4-6 rats per test group) were fasted overnight (19 hours). The rats were then subcutaneously administered 10 mg/kg, 30 mg/kg or 100 mg/kg of carbamazepine (Compound B) with a 25% HPBCD vehicle or with a 25% HPBCD vehicle alone. Some test animals were not dosed (i.e., naïve). The rats were then placed in individual, bedding-free cages and allowed ad libitium access to pre-weighed food and water for two hours. The food and water were then removed and the food was reweighed. […] Data are represented as the means+S.E.M. % Gastric Emptying in 4 hours=(1−(gastric content/food intake))×100.
Male, Sprague-Dawley rats (weighing between 238-274 g each and 6 rats per test group) were fasted overnight (19 hours). The rats were then orally administered 30 mg/kg, 100 mg/kg or 300 mg/kg of carbamazepine (Compound B) with a 0.5% MC vehicle or with a 0.5% MC vehicle alone. The rats were then placed in individual, bedding-free cages and allowed ad libitium access to pre-weighed food and water for two hours. The food and water were then removed and the food was reweighed. […] Data are represented as the means+S.E.M. % Gastric Emptying in 4 hours=(1−(gastric content/food intake))×100.
Male, Sprague-Dawley rats (weighing between 235-276 g each and 4-6 rats per test group) were fasted overnight (19 hours).

The test system of test [2] is Sprague-Dawley rats. Kind of test: Gastrointestinal transit, charcoal meal assay. To be noted: for dosage level with significant effect on stomach weight / stomach weight: charcoal meal assay; for stomach weight: vs vehicle treated animals; for gastrointestinal transit (% small intestinal transit): charcoal meal, 60 minutes pretreatment, vs vehicle. The protocol:
Small intestinal transit was measured based on a known method which involved the oral administration of a charcoal meal (Gmerek et al. (1986). “Independent central and peripheral mediation of morphine-induced inhibition of gastrointestinal transit in rats.” J Pharmacol Exp Ther 236(1): 8-13). Rats were fasted with free access to water for 18 hours. Test compound or vehicle was dosed prior to oral administration of a charcoal slurry containing activated charcoal, flour and water in a ratio of 1:2:7.5 (10 ml/kg orally). One hour after receiving the charcoal slurry, rats were euthanized by CO2 asphyxiation. The stomach and GI tract was excised from each animal. Whole stomach weight was recorded and the length of the small intestine (cm) (stomach to cecum) and the distance (cm) to the leading edge of charcoal was measured. Small intestinal transit data are expressed as a percentage of the distance traveled (i.e. % small intestinal transit=(distance charcoal traveled)/(total length of small intestine (stomach to cecum)×100). Pretreatment times were determined on the basis of pharmacokinetic data (not shown) and were as follows: Compound A, 60 minutes, Compound C, 60 minutes; carbamazepine, 60 minutes. Morphine was administered with a pretreatment time of 30 mins based on previous experience.

Test [3] relates to Sprague-Dawley rats. Kind of test: Gastric secretion volume and pH in fasted rats. The note with it: lansoprazole 30 mg/kg orally, alone (Example 17). The protocol:
Gastric section and acidity was assessed by direct measurement in fasted animals (Melo et al. (2006). “Effect of acid secretion blockade on acute gastric mucosal lesions induced by Tityus serrulatus scorpion toxin in anaesthetized rats.” Toxicon 48(5): 543-549). Rats were fasted with free access to water for 24 hours on wire inserts without bedding. The next day, all rats were dosed orally with 0.5% MC (5 ml/kg) to remove any residual stomach contents and test compound or vehicle was administered. The animals were water deprived for 3 hours, anesthetized with isoflurane (5% in O2), and a laparotomy was conducted followed by tight ligation of the pylorus and cardia. After ligation, the stomach was removed and the rat was immediately euthanized by decapitation. The stomach was opened along the greater curvature and gastric fluid collected into Eppendorf tubes and centrifuged (5 min at 10×1000 g). pH was determined by pipetting gastric fluid directly onto an indicator stick (Whatman, Panpeha Plus, pH0-14). Data are represented as the mean volume and mean pH.
Male, Sprague-Dawley rats (weighing between 254-270 g each and 6 rats per test group) were fasted overnight (24 hours) on wire inserts without bedding. The rats were first orally dosed with 0.5% MC vehicle and then subcutaneously injected with 3 mg/kg or 10 mg/kg of Compound A with a 25% HPBCD vehicle or with a 25% HPBCD vehicle alone. The test animals were water deprived for 3 hours and then anesthetized with isoflurane and the pylorus and cardia were tightly ligated. The stomachs were then removed and the rats were euthanized. The gastric fluid was removed from the stomachs and collected in eppendorf tubes by cutting along the greatest curvature and spun in a centrifuge. Gastric secretion data were analyzed by a one-way ANOVA using a Bonferroni Multiple Comparison test, where *P<0.05 and **P<0.01 as compared to the appropriate vehicle. Data are represented as the means+S.E.M. PH data were analyzed by a one-way ANOVA using Dunnett's Multiple Comparison Test. Data are represented as the means+S.E.M.
This Example measured volume and pH of gastric secretion three hours post subcutaneous administration of 10 mg/kg of Compound A. The animals were water deprived during this time.

Where [4] appears, read: comparison at equal or similar dosages, routes and vehicles.
Setting [5] is: p.o. 10 mg/kg and 30 mg/kg, 0.5% MC vehicle (Example 6).
[6] abbreviates: p.o. 100 mg/kg and 300 mg/kg, 0.5% MC vehicle (Example 7).
The mark [7] stands for this setting: p.o. 100 mg/kg, 0.5% MC vehicle (Example 6).
Setting [8] is: s.c. 10, 30, 100 mg/kg, 25% HPBCD vehicle (Example 6).
Where [9] appears, read: i.p. 10, 30, 100 mg/kg, 25% HPBCD vehicle (Example 8).
Setting [10] is: p.o. 30, 100, 300 mg/kg, 0.5% MC vehicle (Example 5).
[11] abbreviates: s.c. 10, 30, 100 mg/kg, 25% HPBCD vehicle (Example 4).

Entries after “also recorded” stand apart in the source; their conditions may differ.

This note sets out measurements from patent publication US10143696B2, “Methods and compositions for decreasing gastric emptying” (priority 2015, dated 2018).

In the case of `NC(=O)[C@@H]1CC[C@H](c2ccc(OCc3ccccc3F)cc2)N1` [Compound C], the “gastric emptying inhibition potency compared between compounds” value in the test on Sprague-Dawley rats [1] (setting [4]) is listed as “least potent”. The “% Gastric Emptying in 4 hours” value in the test on Sprague-Dawley rats [1] (setting [5]) is given as “did not affect”; in the test with Sprague-Dawley rats [1] (setting [6]) it was “inhibits gastric emptying”; with Sprague-Dawley rats [1] (setting [7]), “inhibits the percentage of gastric emptying”; with Sprague-Dawley rats [1] (setting [8]), “did not inhibit the percentage of gastric emptying”. The food intake entry in the test on Sprague-Dawley rats [1] (setting [5]) is “reduced food intake”; in the test with Sprague-Dawley rats [1] (setting [7]) it was “reduces food intake”; in the test with Sprague-Dawley rats [1] (p.o. 10-300 mg/kg, 0.5% MC vehicle (Example 7)), “reduces food intake”; in the test on Sprague-Dawley rats [1] (setting [8]) it was “decreased”. Besides, the stomach weight result is given as “did not affect” with Sprague-Dawley rats [1] (setting [5]); “increases stomach weight” with Sprague-Dawley rats [1] (setting [6]); “increases stomach weight” in the test on Sprague-Dawley rats [1] (setting [7]); “decreased” in the test on Sprague-Dawley rats [1] (setting [8]); “statistically significant increase in stomach weight” with Sprague-Dawley rats [2]. Moreover, the “dosage level with significant effect on stomach weight” value in the test with Sprague-Dawley rats [2] is recorded as 100 mg/kg. Also, the “gastrointestinal transit (% small intestinal transit)” value in the test with Sprague-Dawley rats [2] was “No statistically significant decrease in gastrointestinal transit”.
For `Cc1c(OCC(F)(F)F)ccnc1C[S+]([O-])c1nc2ccccc2[nH]1` (centres unmarked) [Lansoprazole, lansoprazole, reference compound], in the test with Sprague-Dawley rats [3], the “pH of gastric secretion” value is recorded as “increase the pH” and the “volume of gastric secretion” value was “did not affect volume of gastric secretion”.
With `COc1cc2nc(N3CCN(C(=O)C4CCCO4)CC3)nc(N)c2cc1OC` (centres unmarked) [terazosin, reference compound], the “% Gastric Emptying in 4 hours” value in the test with Sprague-Dawley rats [1] (rat, in vivo) is listed as “Neither terazosin nor atenolol alone had a significant effect”.
Turning to `NC1=N[C@H](O)[C@H]2[C@H]3O[C@]4(O)O[C@@H]([C@@H](O)[C@@]2(N1)[C@@H]4O)[C@]3(O)CO` [TTX, tetrodotoxin, reference compound], the “gastric emptying inhibition potency compared between compounds” value with Sprague-Dawley rats [1] (rat, in vivo) was “comparable to that achieved by 30 mg/kg of Compound A administered orally”. In addition, in the test on Sprague-Dawley rats [1] (rat, in vivo, sc), the “% Gastric Emptying in 4 hours” value is listed as “inhibits gastric emptying; also recorded: statistically significant decrease in gastric emptying” and the food intake entry was “reduces food intake; also recorded: dose dependent decrease in food intake”.
Consider `CN1CC[C@]23c4c5ccc(O)c4O[C@H]2[C@@H](O)C=C[C@H]3[C@H]1C5` [morphine, reference compound], for which, in the test on Sprague-Dawley rats [2] (rat, in vivo), the gastrointestinal transit entry is given as “less than 35%” and the “stomach weight (average)” value is “over 7 g”.
As for `O=S(=O)(Nc1nncs1)c1cc(Cl)c(Oc2ccc(C(F)(F)F)cc2-c2ccnnc2)cc1F` [Compound D], in the test on Sprague-Dawley rats [1] (setting [4]), the “gastric emptying inhibition potency compared between compounds” value is “greater gastric emptying inhibition potency than Compounds B and C”. Besides, the stomach weight result in the test with Sprague-Dawley rats [1] (i.p. 10 mg/kg and 100 mg/kg, 25% HPBCD vehicle (Example 8)) is reported as “increases stomach weight”. Also, in the test with Sprague-Dawley rats [1] (setting [9]), the “% Gastric Emptying in 4 hours” value is reported as “inhibits gastric emptying” and the food intake result is “reduces food intake”.
With `NC(=O)N1c2ccccc2C=Cc2ccccc21` [Compound B, carbamazepine, reference compound], the “percent of gastric inhibition, oral 0.5% MC compared with subcutaneous 25% HPBCD” value in the test with Sprague-Dawley rats [1] (equal dosage, Examples 4 and 5) is “numerically more potent”. Further, in the test with Sprague-Dawley rats [1] (setting [10]), the “% Gastric Emptying in 4 hours” value is recorded as “inhibits gastric emptying”, the food intake result is reported as “reduces food intake” and the stomach weight entry was “increases stomach weight”. Moreover, the stomach weight entry with Sprague-Dawley rats [1] (s.c. 100 mg/kg, 25% HPBCD vehicle (Example 4)) is “stomach weight increase”. Besides, in the test on Sprague-Dawley rats [1] (setting [11]), the “% Gastric Emptying in 4 hours” value is reported as “inhibits the percent of gastric emptying” and the food intake entry was “food intake decreased”. For the same molecule, in the test on Sprague-Dawley rats [2], the “dosage level with significant effect on stomach weight” value amounted to 30 mg/kg, the stomach weight entry was “statistically significant increase in stomach weight” and the “gastrointestinal transit (% small intestinal transit)” value is recorded as “No statistically significant decrease in gastrointestinal transit; also recorded: decreasing trend”.
